Assays:
[1] = tested on: mild to moderate asthma patients; settings: human, in vivo
[2] = tested on: subjects with severe asthma treated with oral corticosteroids; test: Lidocaine for reducing concurrent corticosteroids in steroid dependent severe asthma (Example 7); assay type: in vivo, human; settings: interim, all patients past visit 7

`CCN(CC)CC(=O)Nc1c(C)cccc1C` [lidocaine, acetamide 2-(diethylamino)-N-(2,6-dimethylphenyl)] was tested, and the “bronchospasm (decrease in FEV1 >20% 30 min after aerosol administration)” value [1] was “no reports of bronchospasm”, the “loss of gag reflex” value [1] was “No loss of gag reflex was reported” and the “tolerability and safety overall” value [1] was “no significant adverse events related to study drug”. The “tracheal aspiration of food or liquid” value [1] was “No case of tracheal aspiration of food or liquid was reported” and the “relation of reported adverse events to treatment” value [2] was “None of the reported adverse events were thought to be related to the lidocaine treatment”.

Reference: patent publication US20060062739A1 (priority 2004, published 2006)
